Measurements as given in the kinase profiling compilation of Christmann-Franck et al. (2016).

What was measured:
Test in all cases: KINOMEscan competition binding
Conditions in all cases: compound 10.0 µM
AXL (human) = AXL (human) (UniProt P30530)
ROCK2 (human) = ROCK2 (human) (UniProt O75116)
IKBKB (human) = IKBKB (human) (UniProt O14920)
CDK19 (human) = CDK19 (human) (UniProt Q9BWU1)
[1] = tested on: ABL1 (human), P00519 [T315I]
ERBB4 (human) = ERBB4 (human) (UniProt Q15303)
ALK (human) = ALK (human) (UniProt Q9UM73)
Chain of ALK (human) (Q9UM73 whole entry, looked up): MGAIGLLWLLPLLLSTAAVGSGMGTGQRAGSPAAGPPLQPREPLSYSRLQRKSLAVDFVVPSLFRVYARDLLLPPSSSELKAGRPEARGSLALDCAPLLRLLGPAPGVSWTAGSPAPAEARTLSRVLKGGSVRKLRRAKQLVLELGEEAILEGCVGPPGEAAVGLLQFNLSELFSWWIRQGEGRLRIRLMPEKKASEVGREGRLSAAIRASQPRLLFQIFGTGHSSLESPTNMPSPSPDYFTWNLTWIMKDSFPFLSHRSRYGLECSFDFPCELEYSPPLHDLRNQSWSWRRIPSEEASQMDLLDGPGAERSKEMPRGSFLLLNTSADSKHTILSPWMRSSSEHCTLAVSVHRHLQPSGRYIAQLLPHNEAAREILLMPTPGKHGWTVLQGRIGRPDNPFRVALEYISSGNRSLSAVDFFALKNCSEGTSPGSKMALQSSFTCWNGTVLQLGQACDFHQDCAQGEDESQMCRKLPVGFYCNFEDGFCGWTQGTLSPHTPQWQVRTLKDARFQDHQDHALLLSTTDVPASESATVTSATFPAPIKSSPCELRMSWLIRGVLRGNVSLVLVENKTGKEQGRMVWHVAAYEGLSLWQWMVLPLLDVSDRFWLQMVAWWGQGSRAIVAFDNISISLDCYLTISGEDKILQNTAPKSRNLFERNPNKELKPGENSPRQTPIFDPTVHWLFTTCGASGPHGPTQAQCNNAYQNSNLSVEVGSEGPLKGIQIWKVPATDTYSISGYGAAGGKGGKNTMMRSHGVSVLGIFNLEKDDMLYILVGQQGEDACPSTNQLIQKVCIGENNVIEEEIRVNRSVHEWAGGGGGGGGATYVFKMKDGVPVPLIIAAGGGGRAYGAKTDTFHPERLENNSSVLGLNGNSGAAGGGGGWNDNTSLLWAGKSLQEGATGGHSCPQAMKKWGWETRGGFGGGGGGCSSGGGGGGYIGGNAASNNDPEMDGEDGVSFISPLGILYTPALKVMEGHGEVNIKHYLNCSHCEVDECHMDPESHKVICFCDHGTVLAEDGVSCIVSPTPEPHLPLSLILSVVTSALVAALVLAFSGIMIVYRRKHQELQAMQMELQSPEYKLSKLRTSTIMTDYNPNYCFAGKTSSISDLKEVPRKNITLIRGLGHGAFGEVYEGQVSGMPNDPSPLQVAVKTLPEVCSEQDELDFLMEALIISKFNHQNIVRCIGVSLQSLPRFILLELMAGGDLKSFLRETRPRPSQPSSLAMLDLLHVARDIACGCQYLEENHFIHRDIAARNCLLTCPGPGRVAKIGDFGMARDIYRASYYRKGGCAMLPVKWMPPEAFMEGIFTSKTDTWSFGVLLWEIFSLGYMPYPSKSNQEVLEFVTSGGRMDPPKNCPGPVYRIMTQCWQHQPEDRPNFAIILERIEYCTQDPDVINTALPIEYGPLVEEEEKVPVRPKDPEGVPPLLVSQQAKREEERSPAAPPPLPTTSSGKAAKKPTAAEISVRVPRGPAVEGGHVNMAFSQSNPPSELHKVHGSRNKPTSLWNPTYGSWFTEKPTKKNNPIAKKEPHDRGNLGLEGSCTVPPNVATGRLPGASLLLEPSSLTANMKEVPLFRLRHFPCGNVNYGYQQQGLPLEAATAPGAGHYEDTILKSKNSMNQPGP

MAPK14 (human) = MAPK14 (human) (UniProt Q16539)
MAPK8 (human) = MAPK8 (human) (UniProt P45983)
Chain of MAPK8 (human) (P45983 whole entry, looked up): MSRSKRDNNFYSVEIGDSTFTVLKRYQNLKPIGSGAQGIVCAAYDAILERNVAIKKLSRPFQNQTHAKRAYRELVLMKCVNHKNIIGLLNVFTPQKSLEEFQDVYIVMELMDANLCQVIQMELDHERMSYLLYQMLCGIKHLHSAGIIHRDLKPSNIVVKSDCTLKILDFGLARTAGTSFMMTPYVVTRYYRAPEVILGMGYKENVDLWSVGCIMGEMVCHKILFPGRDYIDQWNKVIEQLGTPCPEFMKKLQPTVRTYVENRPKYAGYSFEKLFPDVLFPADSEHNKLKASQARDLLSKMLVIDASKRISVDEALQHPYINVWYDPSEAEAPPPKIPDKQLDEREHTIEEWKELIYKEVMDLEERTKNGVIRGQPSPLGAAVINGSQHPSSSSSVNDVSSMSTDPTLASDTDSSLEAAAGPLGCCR

STK17A (human) = STK17A (human) (UniProt Q9UEE5)
PRKACA (human) = PRKACA (human) (UniProt P17612)
CSNK1D (human) = CSNK1D (human) (UniProt P48730)
AKT2 (human) = AKT2 (human) (UniProt P31751)
PDGFRA (human) = PDGFRA (human) (UniProt P16234)
MAPK3 (human) = MAPK3 (human) (UniProt P27361)
MAP2K1 (human) = MAP2K1 (human) (UniProt Q02750)
[2] = biological target: TYK2 JH1 catalytic (human) (UniProt P29597)
ULK2 (human) = ULK2 (human) (UniProt Q8IYT8)
Chain of ULK2 (human) (Q8IYT8 whole entry, looked up): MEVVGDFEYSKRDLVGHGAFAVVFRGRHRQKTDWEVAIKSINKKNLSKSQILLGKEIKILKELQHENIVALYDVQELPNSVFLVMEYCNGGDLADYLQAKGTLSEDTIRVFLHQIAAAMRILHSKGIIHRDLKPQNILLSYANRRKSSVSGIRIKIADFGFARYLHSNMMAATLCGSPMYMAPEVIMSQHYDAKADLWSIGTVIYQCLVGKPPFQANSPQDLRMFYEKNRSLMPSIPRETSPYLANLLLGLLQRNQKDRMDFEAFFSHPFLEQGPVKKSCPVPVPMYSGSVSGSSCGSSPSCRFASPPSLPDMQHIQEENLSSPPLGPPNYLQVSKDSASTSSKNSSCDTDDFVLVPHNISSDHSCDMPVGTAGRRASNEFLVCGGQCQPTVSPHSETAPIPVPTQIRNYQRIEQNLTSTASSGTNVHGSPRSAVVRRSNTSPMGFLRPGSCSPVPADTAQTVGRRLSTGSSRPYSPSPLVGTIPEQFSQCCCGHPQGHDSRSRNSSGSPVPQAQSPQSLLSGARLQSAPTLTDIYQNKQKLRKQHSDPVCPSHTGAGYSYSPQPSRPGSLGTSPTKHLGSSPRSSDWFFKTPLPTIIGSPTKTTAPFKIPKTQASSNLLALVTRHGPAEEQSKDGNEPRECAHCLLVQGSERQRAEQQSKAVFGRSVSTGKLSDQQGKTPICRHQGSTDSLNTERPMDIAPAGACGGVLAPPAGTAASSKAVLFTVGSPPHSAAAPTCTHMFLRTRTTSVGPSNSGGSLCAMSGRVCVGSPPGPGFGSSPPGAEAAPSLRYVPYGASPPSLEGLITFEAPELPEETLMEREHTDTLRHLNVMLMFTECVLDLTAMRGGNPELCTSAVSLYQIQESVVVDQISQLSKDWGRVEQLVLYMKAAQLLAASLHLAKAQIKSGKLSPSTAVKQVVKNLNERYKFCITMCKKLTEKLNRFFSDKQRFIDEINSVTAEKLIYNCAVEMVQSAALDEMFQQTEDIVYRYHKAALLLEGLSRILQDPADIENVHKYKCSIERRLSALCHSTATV

NTRK1 (human) = NTRK1 (human) (UniProt P04629)
MAP4K1 (human) = MAP4K1 (human) (UniProt Q92918)
CDK14 (human) = CDK14 (human) (UniProt O94921)
MATK (human) = MATK (human) (UniProt P42679)
BRAF (human) = BRAF (human) (UniProt P15056)
PDGFRB (human) = PDGFRB (human) (UniProt P09619)
MAP3K5 (human) = MAP3K5 (human) (UniProt Q99683)
TLK1 (human) = TLK1 (human) (UniProt Q9UKI8)
SYK (human) = SYK (human) (UniProt P43405)
GSK3B (human) = GSK3B (human) (UniProt P49841)
STK39 (human) = STK39 (human) (UniProt Q9UEW8)
CDK9 (human) = CDK9 (human) (UniProt P50750)
BMPR2 (human) = BMPR2 (human) (UniProt Q13873)
DMPK (human) = DMPK (human) (UniProt Q09013)
CDK7 (human) = CDK7 (human) (UniProt P50613)
MAP3K4 (human) = MAP3K4 (human) (UniProt Q9Y6R4)
KIT (human) = KIT (human) (UniProt P10721)
SIK1 (human) = SIK1 (human) (UniProt P57059)
PIK3CA (human) = PIK3CA (human) (UniProt P42336)
AURKA (human) = AURKA (human) (UniProt O14965)
GRK1 (human) = GRK1 (human) (UniProt Q15835)
Chain of GRK1 (human) (Q15835 whole entry, looked up): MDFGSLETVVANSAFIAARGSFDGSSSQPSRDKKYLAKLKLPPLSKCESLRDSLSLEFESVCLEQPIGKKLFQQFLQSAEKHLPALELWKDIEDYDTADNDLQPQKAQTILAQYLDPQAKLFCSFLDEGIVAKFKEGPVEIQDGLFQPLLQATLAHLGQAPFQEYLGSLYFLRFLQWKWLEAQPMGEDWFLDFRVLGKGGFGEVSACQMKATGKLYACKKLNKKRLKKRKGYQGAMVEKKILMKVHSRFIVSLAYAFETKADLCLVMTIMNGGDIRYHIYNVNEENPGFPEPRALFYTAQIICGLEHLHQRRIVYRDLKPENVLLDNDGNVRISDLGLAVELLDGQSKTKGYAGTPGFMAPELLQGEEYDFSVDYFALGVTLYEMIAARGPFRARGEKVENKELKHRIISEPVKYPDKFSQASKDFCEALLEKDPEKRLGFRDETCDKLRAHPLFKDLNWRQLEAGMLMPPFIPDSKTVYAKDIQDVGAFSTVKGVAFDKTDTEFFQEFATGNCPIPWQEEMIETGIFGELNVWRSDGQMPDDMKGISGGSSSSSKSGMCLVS

PLK3 (human) = PLK3 (human) (UniProt Q9H4B4)
PAK4 (human) = PAK4 (human) (UniProt O96013)

Chain of ROCK2 (human) (O75116 whole entry, looked up): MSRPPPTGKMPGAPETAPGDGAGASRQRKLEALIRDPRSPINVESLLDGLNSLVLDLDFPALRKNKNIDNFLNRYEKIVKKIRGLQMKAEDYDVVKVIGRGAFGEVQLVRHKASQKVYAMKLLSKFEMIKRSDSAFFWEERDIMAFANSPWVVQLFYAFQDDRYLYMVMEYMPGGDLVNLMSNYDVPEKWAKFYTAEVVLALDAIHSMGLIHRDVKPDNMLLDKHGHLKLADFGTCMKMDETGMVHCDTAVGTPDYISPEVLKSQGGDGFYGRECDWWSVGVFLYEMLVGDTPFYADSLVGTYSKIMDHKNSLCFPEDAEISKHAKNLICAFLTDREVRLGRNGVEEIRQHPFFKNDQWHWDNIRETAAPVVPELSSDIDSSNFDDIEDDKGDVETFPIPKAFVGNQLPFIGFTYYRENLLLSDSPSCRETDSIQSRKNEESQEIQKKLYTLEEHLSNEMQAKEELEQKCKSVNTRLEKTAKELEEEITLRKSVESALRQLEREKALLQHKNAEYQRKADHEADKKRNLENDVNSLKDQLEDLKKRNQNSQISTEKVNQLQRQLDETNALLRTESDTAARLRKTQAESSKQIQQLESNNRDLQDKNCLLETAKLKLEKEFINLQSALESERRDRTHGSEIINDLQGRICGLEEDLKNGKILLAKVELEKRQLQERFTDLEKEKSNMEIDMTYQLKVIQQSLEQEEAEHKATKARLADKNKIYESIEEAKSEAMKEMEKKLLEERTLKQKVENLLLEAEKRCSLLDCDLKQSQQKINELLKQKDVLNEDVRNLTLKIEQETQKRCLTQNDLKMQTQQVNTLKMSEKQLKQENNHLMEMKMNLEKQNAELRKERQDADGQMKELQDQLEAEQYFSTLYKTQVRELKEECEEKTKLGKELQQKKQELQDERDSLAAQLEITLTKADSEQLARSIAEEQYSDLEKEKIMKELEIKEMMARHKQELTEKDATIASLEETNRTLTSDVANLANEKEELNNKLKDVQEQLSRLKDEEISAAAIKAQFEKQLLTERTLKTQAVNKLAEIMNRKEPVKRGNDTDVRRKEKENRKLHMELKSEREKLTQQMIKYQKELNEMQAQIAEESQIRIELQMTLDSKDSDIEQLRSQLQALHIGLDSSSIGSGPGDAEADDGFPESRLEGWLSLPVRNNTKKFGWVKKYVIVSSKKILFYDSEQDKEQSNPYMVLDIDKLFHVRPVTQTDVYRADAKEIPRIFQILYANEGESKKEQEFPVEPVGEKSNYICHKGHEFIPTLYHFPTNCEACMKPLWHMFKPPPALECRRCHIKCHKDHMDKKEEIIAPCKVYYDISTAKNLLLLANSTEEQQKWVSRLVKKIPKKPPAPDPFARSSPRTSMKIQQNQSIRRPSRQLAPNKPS

O=C(Nc1ccc(Oc2ncnc3[nH]ncc23)cc1)Nc1ccc(Cl)c(C(F)(F)F)c1
kinase still bound, per cent of control (AXL (human)): 25% | kinase still bound, per cent of control (ROCK2 (human)): 63% | kinase still bound, per cent of control (IKBKB (human)): 91% | kinase still bound, per cent of control (CDK19 (human)): 0.35% | kinase still bound, per cent of control [1]: 46% | kinase still bound, per cent of control (ERBB4 (human)): 94% | kinase still bound, per cent of control (ALK (human)): 57% | kinase still bound, per cent of control (MAPK14 (human)): 0% | kinase still bound, per cent of control (MAPK8 (human)): 85% | kinase still bound, per cent of control (STK17A (human)): 62% | kinase still bound, per cent of control (PRKACA (human)): 69% | kinase still bound, per cent of control (CSNK1D (human)): 88% | kinase still bound, per cent of control (AKT2 (human)): 96% | kinase still bound, per cent of control (PDGFRA (human)): 0.4% | kinase still bound, per cent of control (MAPK3 (human)): 100% | kinase still bound, per cent of control (MAP2K1 (human)): 76% | kinase still bound, per cent of control [2]: 88% | kinase still bound, per cent of control (ULK2 (human)): 82% | kinase still bound, per cent of control (NTRK1 (human)): 41% | kinase still bound, per cent of control (MAP4K1 (human)): 61% | kinase still bound, per cent of control (CDK14 (human)): 23% | kinase still bound, per cent of control (MATK (human)): 100% | kinase still bound, per cent of control (BRAF (human)): 3.8% | kinase still bound, per cent of control (PDGFRB (human)): 0% | kinase still bound, per cent of control (MAP3K5 (human)): 90% | kinase still bound, per cent of control (TLK1 (human)): 100% | kinase still bound, per cent of control (SYK (human)): 56% | kinase still bound, per cent of control (GSK3B (human)): 99% | kinase still bound, per cent of control (STK39 (human)): 72% | kinase still bound, per cent of control (CDK9 (human)): 56% | kinase still bound, per cent of control (BMPR2 (human)): 81% | kinase still bound, per cent of control (DMPK (human)): 100% | kinase still bound, per cent of control (CDK7 (human)): 11% | kinase still bound, per cent of control (MAP3K4 (human)): 87% | kinase still bound, per cent of control (KIT (human)): 0.05% | kinase still bound, per cent of control (SIK1 (human)): 100% | kinase still bound, per cent of control (PIK3CA (human)): 100% | kinase still bound, per cent of control (AURKA (human)): 23% | kinase still bound, per cent of control (GRK1 (human)): 89% | kinase still bound, per cent of control (PLK3 (human)): 16% | kinase still bound, per cent of control (PAK4 (human)): 100%
